In patent US11739120B2, “Water soluble salts of lipidated peptides and methods for preparing and using the same” (Bridge Biotherapeutics, Inc., priority 2018, dated 2023):
Residues, ends and D or L forms follow the SMILES beside them. *: point of attachment. Palmitoyl = CCCCCCCCCCCCCCCC(=O)*

Assays:
Assay type in all cases: physicochemical
[1] = Solubility of amorphous, Form A and Form E of Compound I-1 in water (shaken at 25° C., HPLC); conditions: for Final pH: mother liquor
Protocol: The solubility of amorphous, Form A or E of Compound I-1 in water was further studied. Specifically, about 250 mg Compound I-1 in amorphous, Forms A and E were each suspended in a 2 mL HPLC vial with 0.9 mL of water. Each suspension was then shaken at 25° C. under 1000 rpm. The suspensions were analyzed at 1 h and 24 h. In particular, at either the 1 h or 24 h time point, the slurries were centrifuged and analyzed by HPLC. The pH values of the mother liquors were measured, and the residues were characterized by XRPD.

[2] = Storage stability of formulations of amorphous Compound I-1; conditions: powder from capsules; 6 month at 25° C./60% RH or 40° C./75% RH
Protocol: This enteric coated capsule formulation was tested for stability and dissolution. […] Thus, this formulation can be storage stable.
This capsule formulation was also tested for stability and dissolution. […] Thus, Formulation B is also storage stable.
This capsule formulation was also tested for stability and dissolution.
This tablet formulation was also tested for stability and dissolution.

[3] = Approximate solubility of Compound I-1 (amorphous) in different solvents (manual dilution, visual observation); conditions: ambient laboratory temperature
Protocol: In this Example, approximate solubility tests of Compound I-1 (amorphous) were conducted in the different solvents at ambient laboratory temperature. The solubility was also tested by manual dilution combined with visual observation. In particular, a known amount of Compound I-1 was weighed and added to a vial. A known amount of solvent was gradually added to the vial with constant stirring. The solvent addition was kept at a very slow rate to minimize any excess solvent beyond what is needed to fully dissolve the solids. In order to cross-check the solubility, a small amount of Compound I-1 was added to the vial to confirm that the solution became turbid.

[4] = Stabilities of amorphous Compound I-1 (ICH guideline, XRPD)
Protocol: Stabilities of amorphous Compound I-1 were also conducted according to ICH guideline.

For `CCCCCCCCCCCCCCCC(=O)N1CCC[C@H]1C(=O)N1CCC[C@H]1C(=O)NCC(=O)N[C@@H](Cc1ccc(O)cc1)C(=O)[O-].[Na+]` [Compound I-1 (Amorphous), sodium palmitoyl-L-prolyl-L-prolylglycyl-L-tyrosinate] (Palmitoyl-PPGY-OH), the “Final pH” value ([1]; water, 25° C., time point 1 hour) was 9.05, the “Final pH” value ([1]; water, 25° C., time point 24 hours) was 9.03 and the “XRPD pattern (wet)” value ([1]; residue of the suspension in water, 25° C., time point 24 hours) was “Mostly D”. For the same compound, the “Solubility at 25° C.” value ([1]; water, time point 1 hour) was 239.1 mg/mL, the solubility at 1 h ([1]; water, time point 1 hour) was greater than 200 mg/mL and the “Solubility at 25° C.” value ([1]; water, time point 24 hours) was 180.1 mg/mL. The solubility at 24 h ([1]; water, time point 24 hours) was roughly 180 mg/mL, the “crystalline conversion (X-ray diffractograms, FIG. 12)” value [2] was “no crystalline conversion was observed” and the solubility ([3]; 1,4-Dioxane) was 33.3 to 50 mg/mL. The solubility ([3]; 1-butanol) was 50 to 100 mg/mL, the solubility ([3]; 2-Methyl Tetrahydrofuran) was greater than 100 mg/mL and the solubility ([3]; Acetone) was less than 1 mg/mL. It also gave a solubility ([3]; Acetone:H2O (1:2)) of 50 to 100 mg/mL, a solubility ([3]; Acetonitrile) of less than 1 mg/mL and a solubility ([3]; Acetonitrile:H2O (1:1)) of 50 to 100 mg/mL. For the same compound, the solubility ([3]; Cyclohexane) was less than 1 mg/mL, the solubility ([3]; DMF) was 20 to 33.3 mg/mL and the solubility ([3]; DMSO) was 50 to 100 mg/mL. The solubility ([3]; Ethanol) was 50 to 100 mg/mL, the solubility ([3]; Ethanol:H2O (1:1)) was 50 to 100 mg/mL and the solubility ([3]; Ethanol:H2O (3:1)) was 50 to 100 mg/mL. The solubility ([3]; Ethyl acetate) was less than 1 mg/mL, the solubility ([3]; Heptane) was less than 1 mg/mL and the solubility ([3]; Isopropyl acetate) was less than 1 mg/mL. For the same compound, the solubility ([3]; Isopropyl alcohol) was 50 to 100 mg/mL, the solubility ([3]; Methanol) was greater than 100 mg/mL and the solubility ([3]; Methanol:H2O (1:1)) was greater than 100 mg/mL. The solubility ([3]; Methanol:H2O (3:1)) was greater than 100 mg/mL, the solubility ([3]; Methyl ethyl ketone) was 3.3 to 5 mg/mL and the solubility ([3]; Methyl isobutyl ketone) was 1.2 to 1.4 mg/mL. The solubility ([3]; Methyl t-butyl ether) was less than 1 mg/mL, the solubility ([3]; N-methyl pyrrolidone) was 50 to 100 mg/mL and the solubility ([3]; Tetrahydrofuran) was greater than 100 mg/mL. It also gave a solubility ([3]; Tetrahydrofuran:H2O (1:1)) of 50 to 100 mg/mL, a solubility ([3]; Toluene) of 50 to 100 mg/mL and a solubility ([3]; Water) greater than 100 mg/mL. The “form transformation (XRPD)” value ([4]; all tested conditions (40° C./75% RH with protection from moisture, 60° C., ambient) except high humidity) was “no form transformation” and the “form transformation (XRPD)” value ([4]; high humidity condition for 1 week) was “could be transferred into Form A”.
